For the assay, the target named is T1, Galanin receptor type 2 (Rattus norvegicus, UniProt O08726).
T1 sequence (O08726 whole entry): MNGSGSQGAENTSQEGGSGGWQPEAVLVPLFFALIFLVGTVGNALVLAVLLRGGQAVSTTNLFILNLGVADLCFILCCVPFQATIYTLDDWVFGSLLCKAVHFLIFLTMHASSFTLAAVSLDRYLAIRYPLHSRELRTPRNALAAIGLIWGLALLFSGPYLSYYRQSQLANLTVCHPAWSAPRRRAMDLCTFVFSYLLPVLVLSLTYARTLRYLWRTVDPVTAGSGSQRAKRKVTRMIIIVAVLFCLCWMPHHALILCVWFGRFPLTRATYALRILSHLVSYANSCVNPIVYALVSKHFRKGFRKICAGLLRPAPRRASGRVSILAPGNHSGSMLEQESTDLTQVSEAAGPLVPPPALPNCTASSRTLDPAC

Non-standard residues stand in square brackets, D forms with d. Residues, ends and D or L forms follow the SMILES beside them.

For the compound `CC(C)C[C@H](NC(=O)[C@H](CC(C)C)NC(=O)[C@@H](Cc1c[nH]c2ccccc12)NC(=O)[C@H](Cc1ccccc1)NC(=O)[C@@H](Cc1c[nH]c2ccccc12)NC(=O)[C@H](CCC(N)=O)NC(=O)[C@H](CCC(N)=O)NC(=O)[C@@H]1CCCN1C(=O)[C@H](CCCCN)NC(=O)[C@@H]1CCCN1C(=O)[C@@H](CCCNC(=N)N)NC(=O)[C@@H]1CCCN1C(=O)CNC(=O)[C@H](CC(C)C)NC(=O)[C@H](CC(C)C)NC(=O)[C@H](Cc1ccc(O)cc1)NC(=O)CNC(=O)[C@H](C)NC(=O)[C@H](CO)NC(=O)[C@H](CC(N)=O)NC(=O)[C@H](CC(C)C)NC(=O)[C@@H](NC(=O)[C@H](Cc1c[nH]c2ccccc12)NC(=O)CN)[C@@H](C)O)C(N)=O` [Gal(1-13)-Std I] (H-GWTLNSAGYLLGP[dR]PKPQQ[dW]F[dW]LL-NH2), the inhibitory constant (Ki) was 0.023 µM. For `CC[C@H](C)[C@H](NC(=O)[C@H](C)NC(=O)[C@H](Cc1c[nH]cn1)NC(=O)[C@@H]1CCCN1C(=O)CNC(=O)[C@H](CC(C)C)NC(=O)[C@H](CC(C)C)NC(=O)[C@H](Cc1ccc(O)cc1)NC(=O)CNC(=O)[C@H](C)NC(=O)[C@H](CO)NC(=O)[C@H](CC(N)=O)NC(=O)[C@H](CC(C)C)NC(=O)[C@@H](N)[C@@H](C)O)C(=O)N[C@@H](CC(=O)O)C(=O)N[C@@H](CC(N)=O)C(=O)N[C@@H](Cc1c[nH]cn1)C(=O)N[C@@H](CCCNC(=N)N)C(=O)N[C@@H](CO)C(=O)N[C@@H](Cc1ccccc1)C(=O)N[C@@H](CO)C(=O)N[C@@H](CC(=O)O)C(=O)N[C@@H](CCCCN)C(=O)N[C@@H](Cc1c[nH]cn1)C(=O)NCC(=O)N[C@@H](CC(C)C)C(=O)N[C@H](C(N)=O)[C@@H](C)O` [Galanin (3-29), rat] the value was 1 µM. With `CC[C@H](C)[C@H](NC(=O)[C@H](C)NC(=O)[C@H](Cc1c[nH]cn1)NC(=O)[C@@H]1CCCN1C(=O)CNC(=O)[C@H](CC(C)C)NC(=O)[C@H](CC(C)C)NC(=O)[C@H](Cc1ccc(O)cc1)NC(=O)CNC(=O)[C@H](C)NC(=O)[C@H](CO)NC(=O)[C@H](CC(N)=O)NC(=O)[C@H](CC(C)C)NC(=O)[C@@H](NC(=O)[C@@H](N)Cc1c[nH]c2ccccc12)[C@@H](C)O)C(=O)N[C@@H](CC(=O)O)C(=O)N[C@@H](CC(N)=O)C(=O)N[C@@H](Cc1c[nH]cn1)C(=O)N[C@@H](CCCNC(=N)N)C(=O)N[C@@H](CO)C(=O)N[C@@H](Cc1ccccc1)C(=O)N[C@@H](CO)C(=O)N[C@@H](CC(=O)O)C(=O)N[C@@H](CCCCN)C(=O)N[C@@H](Cc1c[nH]cn1)C(=O)NCC(=O)N[C@@H](CC(C)C)C(=O)N[C@H](C(N)=O)[C@@H](C)O` [Galanin Porcine 2-29], the inhibition constant Ki was 0.0029 µM.

Compound H-GWTLNSAGYLLGPPPALALA-NH2 [M40] came in with an inhibition constant (Ki) of 0.0019 µM.

The term Ki denotes the equilibrium dissociation constant of an inhibitor or competing ligand from its target. A lower Ki goes with tighter binding.

Source of the values: BindingDB's records for doi:10.1016/s0014-5793(97)00196-8 (Merck Research Laboratories, 1997).
